Laboratory results as given in patent US7550135B2, “Composition for external application” (Kao Corporation, priority 2001, dated 2009).

Assay: Miscibility and mixing stability in formulations
Assay type: physicochemical

Measured: miscibility and mixing stability

CC(CC(=O)NCCOCCOCCNC(=O)CC(C)CC(C)(C)C)CC(C)(C)C (stereo not drawn) [Compound (K)]
excellent: O/W cream of Example 2, 3.5% | hair liquid composition of Example 4, 1.0% | night cream of Example 5, 10.0% | shampoo of Example 3, 2.0% | skin lotion of Example 1, 1.0% | sunscreen emulsion of Example 6, 3.0%
